# Literature values as cited in patent US12458653B2, “Cannabis based therapeutic and method of use” (priority 2018, dated 2025).
# Read-outs that look alike come from different tables or passages of the source.
# Assays:
# [1] = extensive liver metabolism
# [2] = system: chemotherapy-induced nausea and vomiting; conditions: versus available anti-emetic regimens
compound,measurement,setting,value
"CCCCCc1cc(O)c2c(c1)OC(C)(C)[C@@H]1CCC(C)=C[C@@H]21 [Δ9-THC, delta-9 tetrahydrocannabinol]",oral bioavailability of Δ9-THC,[1],4-12%
same,half-life,frequent users,120 to 312 h
same,half-life,infrequent user,31.2 h
same,average plasma clearance rate,men,14.9 ± 3.7 L/h
same,plasma clearance rate,naïve cannabis users,approximately 36 L/hour
same,plasma clearance rate,regular cannabis users,60 L/h
same,average plasma clearance rate,women,11.8 ± 3 L/h
CCCCCc1cc(O)c2c(c1)OC(C)(C)[C@@H]1CCC(CO)=C[C@@H]21 [11-OH-THC],peak concentration in the urine,"after 3 hours, smoking approximately 27 mg of Δ9-THC",77.0 ± 329.7 ng/mL
same,peak concentration in the urine,within two hours after smoking approximately 27 mg of Δ9-THC in a cigarette,3.2 to 53.3 ng/mL
CCCCCc1cc(O)c2c(c1)OC(C)(C)[C@@H]1CCC(C)=C[C@@H]21 [Dronabinol],relief of chemotherapy-induced nausea and vomiting,[2],little relief over available anti-emetic regimens
CCCCCc1cc(O)c2c(c1)OC(C)(C)[C@@H]1CCC(C(=O)O)=C[C@@H]21 [THC—COOH],peak concentration in the urine,"after 4 hours, smoking approximately 27 mg of Δ9-THC",179.4 ng/mL
same,urinary excretion half-life,after seven days of monitoring,approximately 30 hours
same,time THC-COOH is detectable in plasma,after smoking a cigarette containing 16-34 mg of Δ9-THC,2 to 7 days
same,urinary excretion half-life,after twelve days of monitoring,44 to 60 h
same,initial concentration of THC-COOH in serum,clinical study among 52 volunteers,14 to 49 ng/mL
same,THC-COOH detection time,single chronic user,25 days
